Measured values: PubChem BioAssay (NCI)
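GI50 is the concentration that inhibits growth by half. TGI: total growth inhibition.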

Tests used:
Experiment in all cases: NCI-60 cell line screen, 384-well format
A549 NSCLC = system: A549 NSCLC
SNB-75 CNS = system: SNB-75 CNS
HCT-15 colon = system: HCT-15 colon
LOX IMVI melanoma = system: LOX IMVI melanoma
OVCAR-4 ovarian = system: OVCAR-4 ovarian
SK-MEL-28 melanoma = system: SK-MEL-28 melanoma
ACHN renal = system: ACHN renal
HOP-62 NSCLC = system: HOP-62 NSCLC
SF-295 CNS = system: SF-295 CNS
UACC-257 melanoma = system: UACC-257 melanoma
HS 578T breast = system: HS 578T breast
SR leukemia = system: SR leukemia
OVCAR-3 ovarian = system: OVCAR-3 ovarian
M14 melanoma = system: M14 melanoma
NCI-H322M lung = system: NCI-H322M lung
COLO 205 colon = system: COLO 205 colon
IGROV1 ovarian = system: IGROV1 ovarian
DU-145 prostate = system: DU-145 prostate
HCT-116 colon = system: HCT-116 colon
RPMI-8226 leukemia = system: RPMI-8226 leukemia
MDA-MB-231 breast = system: MDA-MB-231 breast
NCI/ADR-RES ovarian = system: NCI/ADR-RES ovarian
HL-60(TB) leukemia = system: HL-60(TB) leukemia
U251 glioblastoma = system: U251 glioblastoma
NCI-H460 NSCLC = system: NCI-H460 NSCLC
SN12C renal = system: SN12C renal
SF-268 CNS = system: SF-268 CNS
BT-549 breast = system: BT-549 breast
MDA-MB-435 melanoma = system: MDA-MB-435 melanoma
MDA-MB-468 breast = system: MDA-MB-468 breast
SNB-19 CNS = system: SNB-19 CNS
NCI-H23 lung = system: NCI-H23 lung
UACC-62 melanoma = system: UACC-62 melanoma
MCF7 breast = system: MCF7 breast
SK-MEL-5 melanoma = system: SK-MEL-5 melanoma
KM12 colon = system: KM12 colon
NCI-H522 lung = system: NCI-H522 lung
EKVX NSCLC = system: EKVX NSCLC
T-47D breast = system: T-47D breast
PC-3 prostate = system: PC-3 prostate
MOLT-4 leukemia = system: MOLT-4 leukemia
SF-539 CNS = system: SF-539 CNS
SK-OV-3 ovarian = system: SK-OV-3 ovarian
OVCAR-5 ovarian = system: OVCAR-5 ovarian
TK-10 renal = system: TK-10 renal
RXF 393 renal = system: RXF 393 renal
HOP-92 NSCLC = system: HOP-92 NSCLC
A498 renal = system: A498 renal
CAKI-1 renal = system: CAKI-1 renal
NCI-H226 lung = system: NCI-H226 lung
HT29 colon = system: HT29 colon
HCC-2998 colon = system: HCC-2998 colon
MALME-3M melanoma = system: MALME-3M melanoma
OVCAR-8 ovarian = system: OVCAR-8 ovarian

**Q.** What does the source list for `CNC(=O)c1cc(COc2nnc(Nc3ccc(Cl)cc3)c3ccoc23)ccn1`?
**A.** GI50 (A549 NSCLC): 5.43 µM; TGI (A549 NSCLC): 19.1 µM; GI50 (SNB-75 CNS): 3.09 µM; TGI (SNB-75 CNS): 11 µM; GI50 (HCT-15 colon): 11.8 µM; TGI (HCT-15 colon): 27.3 µM; GI50 (LOX IMVI melanoma): 18.6 µM; TGI (LOX IMVI melanoma): 43.8 µM; GI50 (OVCAR-4 ovarian): 5.31 µM; TGI (OVCAR-4 ovarian): 16.6 µM; GI50 (SK-MEL-28 melanoma): 5.17 µM; TGI (SK-MEL-28 melanoma): 17.6 µM; GI50 (ACHN renal): 11.1 µM; TGI (ACHN renal): 25.5 µM; GI50 (HOP-62 NSCLC): 4.89 µM; TGI (HOP-62 NSCLC): 15.5 µM; GI50 (SF-295 CNS): 2.4 µM; TGI (SF-295 CNS): 5.78 µM; GI50 (UACC-257 melanoma): 7.95 µM; TGI (UACC-257 melanoma): 20.8 µM; GI50 (HS 578T breast): 2.73 µM; TGI (HS 578T breast): 8.17 µM; GI50 (SR leukemia): 2.5 µM; TGI (SR leukemia): 4.87 µM; GI50 (OVCAR-3 ovarian): 14.3 µM; TGI (OVCAR-3 ovarian): 27.9 µM; GI50 (M14 melanoma): 19.3 µM; TGI (M14 melanoma): 38.6 µM; GI50 (NCI-H322M lung): 11.9 µM; TGI (NCI-H322M lung): 25.1 µM; GI50 (COLO 205 colon): 20 µM; TGI (COLO 205 colon): 37.2 µM; GI50 (IGROV1 ovarian): 12.2 µM; TGI (IGROV1 ovarian): 26.7 µM; GI50 (DU-145 prostate): 12.4 µM; TGI (DU-145 prostate): 25.2 µM; GI50 (HCT-116 colon): 4.08 µM; TGI (HCT-116 colon): 14.9 µM; GI50 (RPMI-8226 leukemia): 14.1 µM; TGI (RPMI-8226 leukemia): 39.9 µM; GI50 (MDA-MB-231 breast): 4.69 µM; TGI (MDA-MB-231 breast): 18.3 µM; GI50 (NCI/ADR-RES ovarian): 8.44 µM; TGI (NCI/ADR-RES ovarian): 20.8 µM; GI50 (HL-60(TB) leukemia): > 100 µM; TGI (HL-60(TB) leukemia): > 100 µM; GI50 (U251 glioblastoma): 10.2 µM; TGI (U251 glioblastoma): 21.9 µM; GI50 (NCI-H460 NSCLC): 8.81 µM; TGI (NCI-H460 NSCLC): 21 µM; GI50 (SN12C renal): 12.9 µM; TGI (SN12C renal): 31.7 µM; GI50 (SF-268 CNS): 3.03 µM; TGI (SF-268 CNS): 8.04 µM; GI50 (BT-549 breast): 9.44 µM; TGI (BT-549 breast): 21.9 µM; GI50 (MDA-MB-435 melanoma): 19.1 µM; TGI (MDA-MB-435 melanoma): 37.5 µM; GI50 (MDA-MB-468 breast): 2.29 µM; TGI (MDA-MB-468 breast): 4.86 µM; GI50 (SNB-19 CNS): 13.1 µM; TGI (SNB-19 CNS): 26 µM; GI50 (NCI-H23 lung): 2.45 µM; TGI (NCI-H23 lung): 5.19 µM; GI50 (UACC-62 melanoma): 3.51 µM; TGI (UACC-62 melanoma): 12.2 µM; GI50 (MCF7 breast): 4.71 µM; TGI (MCF7 breast): 17.6 µM; GI50 (SK-MEL-5 melanoma): 8.37 µM; TGI (SK-MEL-5 melanoma): 20.7 µM; GI50 (KM12 colon): 3.29 µM; TGI (KM12 colon): 8.84 µM; GI50 (NCI-H522 lung): 5.23 µM; TGI (NCI-H522 lung): 17 µM; GI50 (EKVX NSCLC): 13.6 µM; TGI (EKVX NSCLC): 26.8 µM; GI50 (T-47D breast): 15.4 µM; TGI (T-47D breast): 46.9 µM; GI50 (PC-3 prostate): 11.3 µM; TGI (PC-3 prostate): 25.5 µM; GI50 (MOLT-4 leukemia): 34.8 µM; TGI (MOLT-4 leukemia): > 100 µM; GI50 (SF-539 CNS): 1.49 µM; TGI (SF-539 CNS): 3.07 µM; GI50 (SK-OV-3 ovarian): 2.8 µM; TGI (SK-OV-3 ovarian): 9.01 µM; GI50 (OVCAR-5 ovarian): 21.9 µM; TGI (OVCAR-5 ovarian): 40.2 µM; GI50 (TK-10 renal): 10.3 µM; TGI (TK-10 renal): 22.3 µM; GI50 (RXF 393 renal): 2.84 µM; TGI (RXF 393 renal): 8.62 µM; GI50 (HOP-92 NSCLC): 4.23 µM; TGI (HOP-92 NSCLC): 14.2 µM; GI50 (A498 renal): 9.38 µM; TGI (A498 renal): 21.3 µM; GI50 (CAKI-1 renal): 3.38 µM; TGI (CAKI-1 renal): 11.7 µM; GI50 (NCI-H226 lung): 15.2 µM; TGI (NCI-H226 lung): 29.5 µM; GI50 (HT29 colon): 2.4 µM; TGI (HT29 colon): 5.67 µM; GI50 (HCC-2998 colon): 11.1 µM; TGI (HCC-2998 colon): 30 µM; GI50 (MALME-3M melanoma): 5.69 µM; TGI (MALME-3M melanoma): 18 µM; GI50 (OVCAR-8 ovarian): 1.96 µM; TGI (OVCAR-8 ovarian): 3.68 µM
